The values below come from patent publication US20210321985A1, “COMPOSITIONS AND METHODS FOR TARGETED CONTRAST AGENTS FOR MOLECULAR IMAGING” (ARIZONA BOARD OF REGENTS ON BEHALF OF THE UNIVERSITY OF …, priority 2016, published 2021).

The series in a line: Dissolution time of a 2.5-micron encapsulated microbubble in air-saturated liquid. As to conditions: for Dissolution time: 2.5-micron encapsulated microbubble, air-saturated liquid. The series is classed as physicochemical.

`FC(F)(F)C(F)(F)C(F)(F)C(F)(F)F` [Perfluorobutane] registered a Dissolution time of 83 h. As to `FC(F)(F)C(F)(F)C(F)(F)C(F)(F)C(F)(F)C(F)(F)F` [Perfluorohexane], the “stability of microbubbles relative to microbubbles containing C5F12” value (from Table 4) was “only minimal increase in stability”. Take `FC(F)(F)C(F)(F)C(F)(F)C(F)(F)C(F)(F)F` [Perfluoropentane (DDFP), Perfluoropentane]: the Dissolution time was found to be 408 h. Further, under “from Table 4”, the “stability of microbubbles relative to microbubbles containing C3F8” value is given as ~14,000 times and the “stability of microbubbles relative to microbubbles containing C4F10” value is listed as “about five”. Consider `FC(F)(F)C(F)(F)C(F)(F)F` [Perfluoropropane], for which the Dissolution time was 0.7 h.
